For this data set, the system named is acpP::gfp reporter transcript. The data set is described as follows: In vitro translation (PURExpress) and anti-GFP western blot. It is filed as biochemical, Salmonella enterica. Also on record: key to Inhibition of translation in vitro: -: Effect strength is represented by additional (+) signs.; Effect strength is represented by additional (+) signs.; ++: Effect strength is represented by additional (+) signs.; +++: Effect strength is represented by additional (+) signs. The note with it: unconjugated ASO; for GFP Expression (%): RNA 100 nM, 2 h 37 °C, relative to water control; for Inhibition of translation in vitro: summary grade; for Inhibition of in vitro translation of acpP::gfp (in words): western blot of AcpP-GFP fusion protein. The source says: For the generation of target RNA::gfp fusion constructs, we used a previously established protocol ([31]) and the oligonucleotides JVO-19760/JVO-19761 (Supplementary Table 1) to amplify the genomic region spanning nucleotides –40 to + 51 relative to the translational start codon of acpP. The sense oligonucleotide was fused to a T7 promoter sequence for subsequent transcription of the final fusion construct in vitro. The antisense oligonucleotide contained a 30 nt overlapping region with gfp for subsequent fusion PCR with full length gfp (pXG-10; JVO-19762/JVO-19763) (Supplementary Table 1). The PCR products were purified with NucleoSpin Gel and PCR Clean-up (Macherey-Nagel) according to the manufacturer’s instructions and DNA concentration was quantified with a NanoDrop spectrophotometer (A260 nm).
PCR products were used for T7 RNA polymerase-driven transcription in vitro using the MEGAscript T7 kit (Ambion/Thermo Scientific), according to the manufacturer’s instructions and analogous to our previous publication ([31]). The concentration of the RNA solution was quantified with Qubit (Fisher Scientific) and the expected product size and RNA integrity was verified on a 6% PAA, 7 M urea gel.
For in vitro translation of target RNA::gfp fusion constructs, the PURExpress® In Vitro Protein Synthesis Kit (New England Biolabs, E6800L) was used as described previously ([31]). Briefly, the final volume of each in vitro translation reaction was set to 10 µL. 1µL of different concentrations of ASOs ranging from 10 µM to 0.625 µM were added to 1 µL of in vitro transcribed heat-denatured RNA (1µM) to adjust the final RNA concentration to 100 nM. The mixtures were pre-incubated at 37 °C for 5 min. Then 4 µL of Solution A and 3 µL of Solution B were added to the pre-annealed mixtures. After 2 h at 37 °C, protein samples were denatured in 1x reducing protein loading buffer (62.6 mM Tris–HCl pH 6.8, 2 % SDS, 0.1 mg/mL bromphenol blue, 15.4 mg/mL DTT, 10 % glycerol) at 95 °C for 5 min.
To visualise in vitro translated proteins, samples were separated on SDS-PAA (12 % PAA) gels, with subsequent semi-dry western blot transfer on polyvinylidene fluoride (PVDF) membranes. Membranes were blocked with 10% skim milk (in 1x TBS-T) for 1 h and probed with anti-GFP antibody (1:1,000; Sigma-Aldrich) in 5 % skim milk (in 1x TBS-T) overnight at 4 °C. After washing in 1x TBS-T and incubation with an HRP-conjugated secondary antibody (1:5,000; ThermoScientific) in 1x TBS-T, the membrane was incubated with developing solution kit (Amersham™ ECL Select™ Western Blotting Detection Reagent) and protein levels were detected using an ImageQuant LAS 500 (GE Healthcare Life Sciences). Images were processed and band intensities quantified using ImageJ. Protein bands were normalized to the water control.

Oligonucleotides are written 5' to 3', each unit as a sugar letter and its base; * is a phosphorothioate linkage, no mark a phosphodiester; rarer units and linkages stand in square brackets, end groups in braces. Plain capitals give the bases only. d = 2'-deoxy (DNA)

In the case of “DNA-PTO: 10mer phosphorothioate-modified DNA antisense oligomer, sequence CTCATACTCT, targeting acpP (antisense dC*dT*dC*dA*dT*dA*dC*dT*dC*dT)”, the “Inhibition of translation in vitro” value is on record as “-”. Moreover, under “acpP-RNA : ASO 1 : 0.625”, the “GFP Expression (%)” value was 110.7%. Further, the “GFP Expression (%)” value (acpP-RNA : ASO 1 : 1.25) worked out at 106.7%. For the same substance, the “GFP Expression (%)” value (acpP-RNA : ASO 1 : 2.5) was determined as 104.6%. Also, the “GFP Expression (%)” value (acpP-RNA : ASO 1 : 5) is 96.5%. Further, the “GFP Expression (%)” value (acpP-RNA : ASO 1 : 10) was found to be 96.3%.
“LNA: 10mer 2'-4'-locked RNA antisense oligomer, sequence CTCATACTCT, targeting acpP (all LNA, backbone and methylation of C not given here)”: the “Inhibition of in vitro translation of acpP::gfp (in words)” value (from here on “Inhibition … (in words)”) is on record as “substantially blocking in vitro translation of acpP::gfp at 1.25x molar excess”. For the same substance, the “GFP Expression (%)” value (acpP-RNA : ASO 1 : 0.625) is on record as 97.8%. Besides, for the setting “acpP-RNA : ASO 1 : 1.25”, the “GFP Expression (%)” value is recorded as 38.1%. Moreover, where the note is “acpP-RNA : ASO 1 : 2.5”, the “GFP Expression (%)” value amounted to 8.0%. Under “acpP-RNA : ASO 1 : 5”, the “GFP Expression (%)” value is reported as 6.5%. The “GFP Expression (%)” value (acpP-RNA : ASO 1 : 10) is given as 4.5%.
On to “PMO: 10mer phosphorodiamidate morpholino antisense oligomer, sequence CTCATACTCT, targeting acpP (all phosphorodiamidate morpholino (PMO))”, for which the “GFP Expression (%)” value is given as 117.0% (acpP-RNA : ASO 1 : 0.625); 104.6% (acpP-RNA : ASO 1 : 1.25); 92.7% (acpP-RNA : ASO 1 : 2.5); 60.4% (acpP-RNA : ASO 1 : 5); 28.3% (acpP-RNA : ASO 1 : 10).
On to “PNA: 10mer peptide nucleic acid antisense oligomer, sequence CTCATACTCT, targeting acpP (all peptide nucleic acid (PNA))”, for which the “Inhibition … (in words)” value is listed as “substantially blocking in vitro translation of acpP::gfp at 1.25x molar excess”. In addition, the “GFP Expression (%)” value (acpP-RNA : ASO 1 : 0.625) is on record as 106.8%. For the same substance, for the setting “acpP-RNA : ASO 1 : 1.25”, the “GFP Expression (%)” value was found to be 85.9%. Besides, the “GFP Expression (%)” value (acpP-RNA : ASO 1 : 2.5) was 13.0%. In addition, under “acpP-RNA : ASO 1 : 5”, the “GFP Expression (%)” value came to 5.7%. The “GFP Expression (%)” value (acpP-RNA : ASO 1 : 10) was 5.5%.
For the substance “RNA-F: 10mer 2'-fluorinated RNA antisense oligomer, sequence CTCATACTCT, targeting acpP (all 2'-fluoro, backbone and T or U not given here)”, the “GFP Expression (%)” value (acpP-RNA : ASO 1 : 0.625) stood at 96.1%; the “GFP Expression (%)” value (acpP-RNA : ASO 1 : 1.25) came to 97.5%; the “GFP Expression (%)” value (acpP-RNA : ASO 1 : 2.5) amounted to 85.0%; the “GFP Expression (%)” value (acpP-RNA : ASO 1 : 5) was 69.5%; the “GFP Expression (%)” value (acpP-RNA : ASO 1 : 10) was found to be 58.3%.
Take “RNA-MOE: 10mer 2'-methoxyethylated RNA antisense oligomer, sequence CTCATACTCT, targeting acpP (all 2'-MOE, backbone and methylation of C not given here)”: the “Inhibition … (in words)” value is recorded as “substantially blocking in vitro translation of acpP::gfp at 1.25x molar excess”. The “GFP Expression (%)” value (acpP-RNA : ASO 1 : 0.625) stood at 88.5%. In addition, the “GFP Expression (%)” value (acpP-RNA : ASO 1 : 2.5) is 5.1%. Also, where the note is “acpP-RNA : ASO 1 : 5”, the “GFP Expression (%)” value is on record as 3.3%. Also, the “GFP Expression (%)” value (acpP-RNA : ASO 1 : 10) stood at 3.4%.
With “RNA-OMe: 10mer 2'-methylated RNA antisense oligomer, sequence CTCATACTCT, targeting acpP (all 2'-O-methyl, backbone and T or U not given here)”, the “Inhibition of translation in vitro” value was “+”. Also, the “GFP Expression (%)” value (acpP-RNA : ASO 1 : 0.625) was determined as 91.2%. Further, under “acpP-RNA : ASO 1 : 1.25”, the “GFP Expression (%)” value stood at 100.6%. Under “acpP-RNA : ASO 1 : 2.5”, the “GFP Expression (%)” value is reported as 90.2%. The “GFP Expression (%)” value (acpP-RNA : ASO 1 : 5) was 89.0%. Where the note is “acpP-RNA : ASO 1 : 10”, the “GFP Expression (%)” value is 83.7%.

Source of the values: paper doi:10.1101/2023.07.11.548539v1, “A side-by-side comparison of peptide-delivered antisense antibiotics employing different nucleotide mimics” (bioRxiv, 2023).
